Experimental data: PubChem BioAssay (NCI)
Values joined by “and” are separate entries in the source; they are usually repeats but may differ in a detail not shown here. Equal entries are not always repeated.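 Growth conditions: 96-well plates. Treatment: test compound, 48 hours, 5 concentrations. Analysis: linear interpolation between bracketing concentrations; unreached endpoints set to highest concentration. GI50 = concentration required for 50% inhibition of growth. TGI: total growth inhibition.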

Legend:
Experiment in all cases: NCI tumour cell line growth inhibition, 48 h
[1] = system: SNB-75 CNS
[2] = system: UACC-62 melanoma
[3] = system: SK-MEL-2 melanoma
[4] = system: SNB-19 CNS
[5] = system: HCC-2998 colon
[6] = system: SF-268 CNS
[7] = system: CCRF-CEM leukemia
[8] = system: LOX IMVI melanoma
[9] = system: HOP-92 NSCLC
[10] = system: UACC-257 melanoma

Compound | GI50 [1] | TGI [1] | GI50 [2] | TGI [2] | GI50 [3] | TGI [3] | GI50 [4] | TGI [4] | GI50 [5] | TGI [5] | GI50 [6] | TGI [6] | GI50 [7] | TGI [7] | GI50 [8] | TGI [8] | GI50 [9] | TGI [9] | GI50 [10] | TGI [10]
COc1ccc2[nH]cc(-c3ccc(-c4c[nH]c5ccc(OC)cc45)s3)c2c1 | 7.12 µM | 19.5 µM | 13.3 µM | 30.8 µM | 18.1 µM | 51 µM | 10.1 µM | 34.6 µM | 2.4 µM | 5.13 µM | 8.11 µM | 31.7 µM | 0.345 µM | 13.6 µM | 2.2 µM | 5 µM | 4.64 µM | 19.5 µM | 11.4 µM | > 46.5 µM
C/C(=N\NC(=S)N1CC2CCC(CC2)C1)c1nccs1 | – | 16.2 µM | – | 0.893 µM | – | 15.7 µM | – | 15.1 µM | – | 15.9 µM | – | 9.41 µM | – | 0.445 µM | – | 9.09 µM | – | 7.21 µM | – | 6.06 µM
C=C(C)C(O)CCC1(C)C=Cc2c(c(C)cc3c2[nH]c2ccccc23)O1 (stereo unspecified) | – | 9.8 µM | – | 11 µM | 2.11 µM | 8.32 µM | 11.5 µM | 25 µM and 23.6 µM | 2.19 µM | 12.1 µM and 5 µM | 5.6 µM | 25 µM and 19.3 µM | 4.2 µM | 25 µM and 16.7 µM | 3.12 µM | 8.4 µM and 12.2 µM | 10.3 µM | 25 µM and 22.8 µM | – | 20.5 µM
COC(=O)c1ccc(-c2nc3cc(Cl)c(Cl)cc3nc2C#N)cc1 | > 100 µM | > 100 µM | > 100 µM | > 100 µM | > 100 µM | > 100 µM | > 100 µM | > 100 µM | > 100 µM | > 100 µM | > 100 µM | > 100 µM | 31.6 µM | > 100 µM | > 100 µM | > 100 µM | 79 µM | > 100 µM | > 100 µM | > 100 µM
CCOC(=O)c1nn2c(nc1=O)sc1ccc3ccccc3c12 | – | > 100 µM | – | > 100 µM | – | > 100 µM | – | > 100 µM | – | > 100 µM | – | > 100 µM | – | > 100 µM | – | > 100 µM | – | > 100 µM | – | > 100 µM
CN(/N=C/c1cccc2cccnc12)c1ccc([N+](=O)[O-])cc1[N+](=O)[O-] | – | 25.8 µM | – | 63.1 µM | – | 47.4 µM | – | 40.2 µM | – | > 100 µM | – | 58.6 µM | – | > 100 µM | – | > 100 µM | – | 42.7 µM | – | > 100 µM
COC1=C(N)C(=O)c2nc(C)ccc2C1=O | – | 3.74 µM | – | 3.2 µM | – | 3.28 µM | – | 3.83 µM | – | 14.5 µM | – | 4.17 µM | – | > 87.7 µM | – | 2.49 µM | – | 22.1 µM | – | 2.78 µM
N.N.N.N.[Co+3].[N-]=[N+]=[N-].[N-]=[N+]=[N-].[N-]=[N+]=[N-] | > 100 µM | > 100 µM | 85.2 µM | > 100 µM | > 100 µM | > 100 µM | > 100 µM | > 100 µM | > 100 µM | > 100 µM | 47.4 µM | > 100 µM | 61.1 µM | > 100 µM | > 100 µM | > 100 µM | 19 µM | > 100 µM | > 100 µM | > 100 µM
CCN(Cc1cc(Nc2nc(C)cn3c(-c4cn[nH]c4)cnc23)sn1)C(C)(C)CO | 0.0107 µM | 0.0365 µM | 0.0387 µM | 12.8 µM | 0.0293 µM | 7.35 µM | 0.11 µM | 9.57 µM | 0.0741 µM | 4.56 µM | 0.0376 µM | 1.87 µM | < 0.01 µM | 9.55 µM | < 0.0125 µM | 0.199 µM | 0.0119 µM | 0.0714 µM | 0.622 µM | 9.93 µM
C[C@]12CC[C@@H]3c4ccc(OC(=O)N(CCCl)CCCl)cc4CC[C@H]3[C@@H]1CC[C@@H]2O | 2.48 µM | 15.1 µM | 1.41 µM | 16.2 µM | 4.31 µM | 14.8 µM | 7.04 µM | – | 1.56 µM | 5.16 µM | 3.48 µM | 18.9 µM and 3.14 µM | 1.21 µM | 6.83 µM and 3.45 µM | 2.43 µM | 14.3 µM | 9.04 µM | 43.2 µM and 6.51 µM | 3.81 µM | 15 µM
COc1ccc(-c2cc3c(c4cc(OC)ccc24)C(=O)OC3=O)cc1 | – | > 100 µM | – | > 100 µM | – | > 100 µM | – | > 100 µM | – | > 100 µM | – | > 100 µM | – | > 100 µM | – | > 100 µM | – | > 100 µM | – | > 100 µM
O=C1CC(O)CC(=O)C1=C(O)CCCCCCCCCCc1ccccc1 (stereo unspecified) | – | > 100 µM | – | > 100 µM | – | 77.1 µM | – | > 100 µM | – | > 100 µM | – | > 100 µM | – | > 100 µM | – | > 100 µM | – | > 100 µM | – | > 100 µM
CC[C@@H]1c2c(C#N)ncn2-c2cnc(Nc3ccc(C(=O)NC4CCN(C5CCN(CC6CC6)CC5)CC4)cc3OC)nc2N1C1CCCC1 | 0.0452 µM | 1.26 µM | 0.372 µM | 1.79 µM | 0.0407 µM | 1.82 µM | 0.0668 µM | 2.05 µM | 0.04 µM and 0.0308 µM | 1.09 µM and 0.162 µM | 0.0642 µM | 1.77 µM | 0.00738 µM | 1.58 µM | 0.0368 µM | 1.06 µM | 0.0777 µM | 1.83 µM | 0.0431 µM | 1.67 µM
N.N.N.N.N.NC(=O)c1nn[n-]n1.[Cl-].[Co+3] | > 100 µM | > 100 µM | > 100 µM | > 100 µM | > 100 µM | > 100 µM | > 100 µM | > 100 µM | > 100 µM | > 100 µM | > 100 µM | > 100 µM | > 100 µM | > 100 µM | > 100 µM | > 100 µM | > 100 µM | > 100 µM | > 100 µM | > 100 µM
COC(=O)CC1C[C@H](C#N)N(C(=O)c2ccccc2)C[C@@H]1CC[N+](=O)[O-] (stereo partly specified) | – | > 100 µM | – | > 100 µM | – | 0.834 µM | – | > 100 µM | – | > 100 µM | – | > 100 µM | – | > 100 µM | – | > 100 µM | – | > 100 µM | – | > 100 µM
